Measured values reported in ChEMBL document CHEMBL5604063, “ASAP - DENV-2 NS2B-NS3 protease fluorescence dose response” (2024).
“And” between values parts separate entries of the source, which are not always exact repeats. Equal entries are not always repeated.

Columns and labels:
Genome polyprotein [1] = target: T1, Genome polyprotein (dengue virus type 2, UniProt P29990); type: functional, Thailand/16681/1984
Genome polyprotein [2] = target: T1, Genome polyprotein; type: functional, Thailand/16681/1984; remark: listed apart in the source

T1 sequence (P29990 1346-1475 limits assumed): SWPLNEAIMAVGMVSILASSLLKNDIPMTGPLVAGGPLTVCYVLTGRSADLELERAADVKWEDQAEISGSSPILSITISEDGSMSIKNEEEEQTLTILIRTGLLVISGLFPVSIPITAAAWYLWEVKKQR
T1 sequence (P29990 1476-2093 limits assumed): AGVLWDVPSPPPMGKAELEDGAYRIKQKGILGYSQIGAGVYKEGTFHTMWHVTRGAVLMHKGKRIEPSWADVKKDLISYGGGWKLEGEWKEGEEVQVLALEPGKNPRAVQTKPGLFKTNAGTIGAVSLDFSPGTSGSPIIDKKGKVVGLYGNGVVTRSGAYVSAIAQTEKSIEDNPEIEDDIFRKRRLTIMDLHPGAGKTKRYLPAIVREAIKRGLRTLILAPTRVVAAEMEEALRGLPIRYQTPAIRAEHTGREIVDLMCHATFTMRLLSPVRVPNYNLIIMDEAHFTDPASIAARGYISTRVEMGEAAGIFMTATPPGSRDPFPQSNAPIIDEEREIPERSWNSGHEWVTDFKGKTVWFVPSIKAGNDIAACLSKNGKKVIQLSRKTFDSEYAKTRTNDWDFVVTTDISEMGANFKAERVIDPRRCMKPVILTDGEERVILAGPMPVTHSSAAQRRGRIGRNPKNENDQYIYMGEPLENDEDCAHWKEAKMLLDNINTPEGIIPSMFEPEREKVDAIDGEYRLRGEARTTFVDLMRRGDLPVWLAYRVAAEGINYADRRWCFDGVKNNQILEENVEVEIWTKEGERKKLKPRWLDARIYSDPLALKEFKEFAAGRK

Row | Compound | IC50 (Genome polyprotein [1]) | IC50 (Genome polyprotein [2])
1 | O=C(Nc1ccc2c(c1)CNC2)c1cc(Cl)ccc1OC1CCCC1 | > 99.5 µM | > 100 µM
2 | CNC(=O)[C@]1(Nc2ccc3c(c2)CNC3)C(=O)Nc2ccc(Cl)cc21 | > 99.5 µM | > 100 µM
3 | NS(=O)(=O)c1cc(Cl)cc(C(=O)Nc2ccc3c(c2)CNC3)c1 | > 99.5 µM | > 100 µM
4 | O=C(NC1CCOCC1)[C@H](Nc1ccc2c(c1)CNC2)c1cc(Cl)cc(C2CC2)c1 | > 99.5 µM and 37.7 µM and 56.5 µM | > 100 µM
5 | O=C(Nc1ccc2c(c1)CNC2)c1cc2ccccc2[nH]1 | > 99.5 µM | > 100 µM
6 | CCc1cc(Cl)cc(C(=O)Nc2ccc3c(c2)CNC3)c1 | > 99.5 µM | > 100 µM
7 | Cc1ccc2cc(Cl)cc(C(=O)Nc3ccc4c(c3)CNC4)c2n1 | 85.7 µM | 53.2 µM and > 100 µM
8 | Cn1cc(CCc2nc3c(C(=O)Nc4ccc5c(c4)CNC5)cc(Cl)cc3[nH]2)cn1 | 32.5 µM | 19.4 µM and 21.6 µM
9 | O=C(Nc1cnc2c(c1)CNCC2)c1cc(Cl)cc2[nH]ncc12 | > 99.5 µM | > 100 µM
10 | O=C(Nc1ccc2c(c1)CNC2)c1cc(F)cc2[nH]ncc12 | 59.5 µM | 37.8 µM and 24.3 µM
11 | N#C[C@H](Nc1ccc2c(c1)CNC2)c1ccnc(C(F)(F)F)c1 | > 99.5 µM | > 100 µM
12 | O=C(Nc1ccc2c(c1)CNC2)c1cc(Cl)ccc1OCC(F)(F)F | > 99.5 µM | > 100 µM
13 | O=C(Nc1ccc2c(c1)CNC2)c1cc(Cl)nc2[nH]ncc12 | > 99.5 µM | > 100 µM
14 | Cc1c(C(=O)Nc2cc(CN(C)C)ccn2)cc(C2CC2)n1C | > 99.5 µM | > 100 µM
15 | C#Cc1ccnc(NC(=O)c2cc(C3CC3)n(C)c2C)c1 | > 99.5 µM | > 100 µM
16 | O=C(Nc1ccc2c(c1)CNC2)N1CCC[C@](O)(c2ccccc2)C1 | > 99.5 µM | > 100 µM
17 | O=C(Nc1ccc2c(c1)CNC2)N1CCC[C@H](CC2CCC2)C1 | > 99.5 µM | > 100 µM
18 | O=C1CCN(c2cc(Cl)cc(C(=O)Nc3ccc4c(c3)CNC4)c2)C(=O)N1 | > 99.5 µM | > 100 µM
19 | NCCCc1ccnc(NC(=O)c2cnn3c2CCC3)c1 | > 99.5 µM | > 100 µM
20 | CCS(=O)(=O)c1ccc(Cl)cc1C(=O)Nc1ccc2c(c1)CNC2 | > 99.5 µM | > 100 µM
21 | CCN(CC)C[C@H]1CCCN(C(=O)Nc2ccc3c(c2)CNC3)C1 | > 99.5 µM | > 100 µM
22 | O=C(NCC1CCOCC1)[C@H](Nc1ccc2c(c1)CNC2)c1cc(Cl)cc2[nH]ncc12 | > 99.5 µM | > 100 µM

Row | Compound | IC50 (Genome polyprotein [1]) | IC50 (Genome polyprotein [2])
23 | O=C(Nc1ccc2c(c1)CNC2)c1ccc2scnc2c1 | 23.2 µM and 10.6 µM | 41.5 µM and 45.1 µM
24 | NCc1cc(NC(=O)c2cc(Cl)cc(NC(=O)OCc3ccccc3)c2)cc(-c2ccc(OCC(=O)O)nc2)c1 | > 99.5 µM | > 100 µM
25 | O=C(Nc1ccc2c[nH]nc2c1)c1cc(Cl)cc2[nH]ncc12 | > 99.5 µM | > 100 µM
26 | Cn1ncc2c(C(=O)Nc3ccc4c(c3)CNC4)cc(C3CC3)nc21 | > 99.5 µM | > 100 µM
27 | O=C(NCc1ccc(F)cc1)[C@H](Nc1ccc2c(c1)CNC2)c1cc(Cl)cc2[nH]ncc12 | > 99.5 µM | > 100 µM
28 | COc1ccc(CN2Cc3cc(NC(=O)c4cc(Cl)cc5[nH]ncc45)cc(Br)c3C2)cc1 | > 99.5 µM | > 100 µM
29 | COCCc1ccnc(NC(=O)c2cc(C3CC3)n(C)c2C)c1 | > 99.5 µM | > 100 µM
30 | CCCN1C(=O)[C@](Nc2ccc3c(c2)CNC3)(C(=O)NC)c2ccccc21 | > 99.5 µM | > 100 µM
31 | COCCN(C)Cc1ccnc(NC(=O)c2cc(C3CC3)n(C)c2C)c1 | > 99.5 µM | > 100 µM
32 | O=C(Nc1ccc2c(c1)CNC2)c1cc(Cl)cc2ccncc12 | > 99.5 µM | > 100 µM
33 | Cc1c(C(=O)Nc2ccc3c(c2)CNC3)cc(C2CC2)n1C | > 99.5 µM | > 100 µM
34 | C[C@H]1CC2(CN1C(=O)Nc1ccc3c(c1)CNC3)CC(F)(F)C2 | > 99.5 µM | > 100 µM
35 | O=C(Nc1ccc2c(c1)CNC2)N1CC[C@H](CC(F)(F)F)C1 | > 99.5 µM | > 100 µM
36 | O=C(Nc1ccc2c(c1)CNC2)N1CC(F)(F)CC2(CCC2)C1 | > 99.5 µM | > 100 µM
37 | NCCCc1ccnc(NC(=O)c2nnc(C3CC3)s2)c1 | > 99.5 µM | > 100 µM
38 | Cc1ccc(C(=O)Nc2ccc3c(c2)CNC3)c2[nH]ncc12 | > 99.5 µM | > 100 µM
39 | O=C1Cc2c(cc(Br)cc2C(=O)Nc2ccc3c(c2)CNC3)N1 | > 99.5 µM | > 100 µM
40 | N#C[C@H](Nc1ccc2c(c1)CNC2)c1cccc2c1CCNC2=O | > 99.5 µM | > 100 µM
41 | CC1([C@H]2CCCN(C(=O)Nc3ccc4c(c3)CNC4)C2)CC1 | > 99.5 µM | > 100 µM
42 | O=C(Nc1ccc2c(c1)CNC2)c1cc(Cl)ccc1-n1ccnc1 | > 99.5 µM | > 100 µM
43 | CCCN1C(=O)[C@](Nc2ccc3c(c2)CNC3)(C(=O)NC)c2cc(Cl)ccc21 | > 99.5 µM | > 100 µM
44 | NCc1cc(Cl)cc(C(=O)Nc2ccc3c(c2)C(=O)OC3)c1 | > 99.5 µM | > 100 µM
